Columns and labels:
MAT2A [1] = target: T1, MAT2A (Homo sapiens, UniProt P31153); test: SPR binding, single-cycle kinetics
T1 construct: purchased Pharmaron 210405‐HWR‐20210429
Method: SPR experiments were performed using a BIAcore 8K instrument (Cytiva) at 25°C. A series S sensor chip SA (Cytiva) was docked into the system in 20 mM Bicine‐Na, pH 7.5, 100 mM KCl, 5 mM MgCl2, 0.1 mM TCEP, 0.05% (w/w) Tween‐20, and 2% (v/v) DMSO. The MAT2A protein was captured by Penta‐anti‐His antibody, and the affinity of SCR‐7952 was tested over a suitable dose–response range (12.5–200 nM) by single‐cycle kinetics. The kinetic parameters of SCR‐7952 on MAT2A were fitted via a 1:1 binding model.

INSR = INSR (Homo sapiens, UniProt P06213); test: Mini-profiling panel, kinase; format: biochemical; conditions: Kinases; read-out: INSR Inhibitor IC50
hERG = hERG (Homo sapiens, UniProt Q12809); test: Mini-profiling panel, ion channel; format: cell-based; conditions: Ion Channels; read-out: hERG Blocker IC50
CCKAR = CCKAR (Homo sapiens, UniProt P32238); test: Mini-profiling panel, GPCR; format: cell-based; conditions: GPCR Targets
CCKAR, sequence (P32238 whole entry, species assumed): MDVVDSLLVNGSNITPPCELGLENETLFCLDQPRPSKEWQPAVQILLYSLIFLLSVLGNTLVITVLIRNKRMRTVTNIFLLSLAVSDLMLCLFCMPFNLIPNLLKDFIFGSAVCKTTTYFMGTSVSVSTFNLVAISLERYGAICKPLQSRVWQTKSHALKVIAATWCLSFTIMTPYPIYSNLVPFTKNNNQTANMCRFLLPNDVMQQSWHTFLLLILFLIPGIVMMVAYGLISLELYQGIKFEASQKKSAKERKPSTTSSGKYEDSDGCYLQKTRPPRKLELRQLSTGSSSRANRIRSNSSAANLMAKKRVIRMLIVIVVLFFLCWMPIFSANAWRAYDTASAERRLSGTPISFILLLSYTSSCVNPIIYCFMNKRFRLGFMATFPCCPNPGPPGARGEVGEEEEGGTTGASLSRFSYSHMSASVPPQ

[2] = Plasma bilirubin in mice after oral treatment; format: in vivo; conditions: SCR-7952 1.0 mg/kg, 14 days oral treatment, 2 h after final dose
HRH2 = HRH2 (Homo sapiens, UniProt P25021); test: Mini-profiling panel, GPCR; format: cell-based; conditions: GPCR Targets
HRH2, sequence (P25021 whole entry, species assumed): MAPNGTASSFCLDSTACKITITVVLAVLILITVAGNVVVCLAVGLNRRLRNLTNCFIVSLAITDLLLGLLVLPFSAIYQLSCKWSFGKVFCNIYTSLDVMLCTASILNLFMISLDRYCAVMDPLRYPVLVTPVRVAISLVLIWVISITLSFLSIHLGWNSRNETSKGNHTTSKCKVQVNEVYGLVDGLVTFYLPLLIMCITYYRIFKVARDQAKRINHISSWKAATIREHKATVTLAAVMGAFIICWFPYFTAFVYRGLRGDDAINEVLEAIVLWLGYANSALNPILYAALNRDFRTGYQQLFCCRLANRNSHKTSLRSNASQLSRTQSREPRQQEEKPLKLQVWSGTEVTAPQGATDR

ROCK1 = ROCK1 (Homo sapiens, UniProt Q13464); test: Mini-profiling panel, kinase; format: biochemical; conditions: Kinases; read-out: ROCK1 Inhibitor IC50
MAT2A [3] = target: T1, MAT2A; test: MAT2A enzymatic activity, biochemical assay (phosphate release)
Method: The test compound was prepared in dimethyl sulfoxide (DMSO). […] Then, 40 µL of enzyme dilution was added and the mixture was incubated for 120 min at room temperature. The enzymatic assay was initiated by adding 40 µL of substrate mix (a final dose of 400 µM ATP and a final dose of 200 µM L‐methionine in assay buffer), and the mixture was incubated for a further 90 min at room temperature. The liberated phosphate released by the enzyme in stoichiometric amounts by the production of SAM was measured using the Phosphate Assay Kit—PiColorLock™ (Abcam, UK). Velocity curves were fit to the standard Michaelis‐Menten equation to yield V max and K m.

HRH1 = HRH1 (Homo sapiens, UniProt P35367); test: Mini-profiling panel, GPCR; format: cell-based; conditions: GPCR Targets
HRH1, sequence (P35367 whole entry, species assumed): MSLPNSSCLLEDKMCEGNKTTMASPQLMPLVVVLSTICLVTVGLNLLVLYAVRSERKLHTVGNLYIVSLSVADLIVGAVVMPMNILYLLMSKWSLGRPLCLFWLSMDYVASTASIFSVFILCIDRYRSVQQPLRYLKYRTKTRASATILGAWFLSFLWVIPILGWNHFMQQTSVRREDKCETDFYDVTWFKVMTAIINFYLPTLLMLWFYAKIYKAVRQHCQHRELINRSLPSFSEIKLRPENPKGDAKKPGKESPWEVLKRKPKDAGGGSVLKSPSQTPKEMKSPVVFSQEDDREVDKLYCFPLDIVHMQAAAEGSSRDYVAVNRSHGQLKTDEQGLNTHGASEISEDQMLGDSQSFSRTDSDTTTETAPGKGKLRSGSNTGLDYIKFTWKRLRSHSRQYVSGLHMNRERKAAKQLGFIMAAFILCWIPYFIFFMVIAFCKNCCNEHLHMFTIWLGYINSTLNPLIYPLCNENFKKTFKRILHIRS

HCT116 MTAP−/− cells = test: Combination proliferation assay with PRMT5 inhibitors (Bliss model); format: cell-based; conditions: 8 days
Method: (§1) Cells were plated in 96‐well cell culture plates and allowed to attach overnight at 37°C in 5% CO2. […] The final concentration of DMSO was 0.1% in media. Cell proliferation was measured using CellTiter‐Glo Cell Viability Assay (Promega). The IC50 values were calculated using the GraphPad Prism 9. Drug combination effects were analyzed using Combenefit software.[45]

SDMA = test: Immunoblot of SDMA (PRMT5-dependent mark); format: cell-based; conditions: 96 h, HCT116 MTAP−/− cells
[4] = system: KP4 (MTAP-deleted pancreatic cancer cell line); test: Combination proliferation assay; format: cell-based; conditions: KP4 cells, 8 days
Method: as §1

AVPR1A = AVPR1A (Homo sapiens, UniProt P37288); test: Mini-profiling panel, GPCR; format: cell-based; conditions: GPCR Targets
AVPR1A, sequence (P37288 whole entry, species assumed): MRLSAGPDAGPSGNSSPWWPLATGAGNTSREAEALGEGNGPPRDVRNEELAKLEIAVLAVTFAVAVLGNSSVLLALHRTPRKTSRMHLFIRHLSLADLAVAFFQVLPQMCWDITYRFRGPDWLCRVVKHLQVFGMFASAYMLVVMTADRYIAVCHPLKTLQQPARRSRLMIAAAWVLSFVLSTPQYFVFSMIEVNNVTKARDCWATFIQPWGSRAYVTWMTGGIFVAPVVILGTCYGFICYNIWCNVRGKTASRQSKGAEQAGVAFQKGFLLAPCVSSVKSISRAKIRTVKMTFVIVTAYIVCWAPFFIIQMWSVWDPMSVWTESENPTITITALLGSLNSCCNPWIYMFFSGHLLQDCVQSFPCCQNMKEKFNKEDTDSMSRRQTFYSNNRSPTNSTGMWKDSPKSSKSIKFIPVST

VEGFR2 = VEGFR2 (Homo sapiens, UniProt P35968); test: Mini-profiling panel, kinase; format: biochemical; conditions: Kinases; read-out: VEGFR2 Inhibitor IC50
[5] = Plasma pharmacokinetics after multiple administration in xenograft mice; format: in vivo; conditions: SCR-7952 1.0 mg/kg
PDE4D2 = PDE4D2 (Homo sapiens, UniProt Q08499); test: Mini-profiling panel, non-kinase enzyme; format: biochemical; conditions: Non-Kinase Enzymes; read-out: PDE4D2 Inhibitor IC50
LCK = LCK (Homo sapiens, UniProt P06239); test: Mini-profiling panel, kinase; format: biochemical; conditions: Kinases; read-out: LCK Inhibitor IC50
LCK, sequence (P06239 whole entry, species assumed): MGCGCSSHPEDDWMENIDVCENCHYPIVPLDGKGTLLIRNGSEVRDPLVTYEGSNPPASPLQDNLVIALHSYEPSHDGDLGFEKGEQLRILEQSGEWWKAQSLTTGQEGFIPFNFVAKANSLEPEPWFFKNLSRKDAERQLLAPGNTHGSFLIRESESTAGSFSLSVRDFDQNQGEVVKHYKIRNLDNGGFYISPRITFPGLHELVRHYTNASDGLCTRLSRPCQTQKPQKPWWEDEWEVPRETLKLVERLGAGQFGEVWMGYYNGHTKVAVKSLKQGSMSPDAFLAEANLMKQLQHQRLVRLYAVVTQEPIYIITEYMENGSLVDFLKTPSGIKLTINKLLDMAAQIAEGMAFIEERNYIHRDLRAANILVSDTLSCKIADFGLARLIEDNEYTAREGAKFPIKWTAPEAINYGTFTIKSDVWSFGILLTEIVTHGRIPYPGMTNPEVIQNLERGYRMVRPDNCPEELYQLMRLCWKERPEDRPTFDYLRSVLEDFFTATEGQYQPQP

ADRB1 = ADRB1 (Homo sapiens, UniProt P08588); test: Mini-profiling panel, GPCR; format: cell-based; conditions: GPCR Targets
ADRB1, sequence (P08588 whole entry, species assumed): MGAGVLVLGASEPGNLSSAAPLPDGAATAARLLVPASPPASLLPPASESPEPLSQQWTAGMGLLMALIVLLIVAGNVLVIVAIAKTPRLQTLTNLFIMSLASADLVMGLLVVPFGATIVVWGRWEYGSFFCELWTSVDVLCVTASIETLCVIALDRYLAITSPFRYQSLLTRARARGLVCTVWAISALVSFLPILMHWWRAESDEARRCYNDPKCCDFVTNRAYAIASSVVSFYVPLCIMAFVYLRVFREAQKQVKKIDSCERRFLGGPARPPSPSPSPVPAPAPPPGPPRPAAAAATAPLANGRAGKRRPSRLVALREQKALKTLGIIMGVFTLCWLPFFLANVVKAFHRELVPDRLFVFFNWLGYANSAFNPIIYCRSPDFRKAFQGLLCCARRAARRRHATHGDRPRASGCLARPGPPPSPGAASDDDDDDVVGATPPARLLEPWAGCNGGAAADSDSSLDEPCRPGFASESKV

DAT = DAT (Homo sapiens, UniProt Q01959); test: Mini-profiling panel, transporter; format: cell-based
Method: (§2) Further insight into selectivity was evaluated in a functional panel of 47 representative targets closely related to human life activities, including G protein‐coupled receptors, transporters, ion channels, kinases, nuclear hormone receptor targets, and nonkinase enzymes (Table S3).

NET = NET (Homo sapiens, UniProt P23975); test: Mini-profiling panel, transporter; format: cell-based
NET, sequence (P23975 whole entry): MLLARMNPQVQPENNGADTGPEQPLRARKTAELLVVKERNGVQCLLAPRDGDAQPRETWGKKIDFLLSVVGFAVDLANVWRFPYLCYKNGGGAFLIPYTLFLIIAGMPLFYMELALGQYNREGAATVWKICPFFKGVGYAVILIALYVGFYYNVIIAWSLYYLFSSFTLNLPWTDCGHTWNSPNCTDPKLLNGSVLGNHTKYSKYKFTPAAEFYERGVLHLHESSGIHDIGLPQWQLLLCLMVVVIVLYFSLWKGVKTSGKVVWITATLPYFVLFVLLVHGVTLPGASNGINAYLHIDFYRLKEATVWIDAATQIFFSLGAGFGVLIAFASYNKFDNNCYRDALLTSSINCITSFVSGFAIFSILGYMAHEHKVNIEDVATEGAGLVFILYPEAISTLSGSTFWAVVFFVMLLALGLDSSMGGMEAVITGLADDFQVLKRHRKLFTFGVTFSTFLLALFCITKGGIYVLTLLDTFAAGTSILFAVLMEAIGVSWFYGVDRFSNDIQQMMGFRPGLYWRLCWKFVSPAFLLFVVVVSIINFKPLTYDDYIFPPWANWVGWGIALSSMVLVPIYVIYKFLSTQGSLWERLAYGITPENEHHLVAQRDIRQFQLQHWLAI
Method: as §2

SERT = SERT (Homo sapiens, UniProt P31645); test: Mini-profiling panel, transporter; format: cell-based
Method: as §2

GR = GR (Homo sapiens, UniProt P04150); test: Mini-profiling panel, nuclear hormone receptor; format: cell-based; conditions: NHR Targets
GR, sequence (P04150 whole entry): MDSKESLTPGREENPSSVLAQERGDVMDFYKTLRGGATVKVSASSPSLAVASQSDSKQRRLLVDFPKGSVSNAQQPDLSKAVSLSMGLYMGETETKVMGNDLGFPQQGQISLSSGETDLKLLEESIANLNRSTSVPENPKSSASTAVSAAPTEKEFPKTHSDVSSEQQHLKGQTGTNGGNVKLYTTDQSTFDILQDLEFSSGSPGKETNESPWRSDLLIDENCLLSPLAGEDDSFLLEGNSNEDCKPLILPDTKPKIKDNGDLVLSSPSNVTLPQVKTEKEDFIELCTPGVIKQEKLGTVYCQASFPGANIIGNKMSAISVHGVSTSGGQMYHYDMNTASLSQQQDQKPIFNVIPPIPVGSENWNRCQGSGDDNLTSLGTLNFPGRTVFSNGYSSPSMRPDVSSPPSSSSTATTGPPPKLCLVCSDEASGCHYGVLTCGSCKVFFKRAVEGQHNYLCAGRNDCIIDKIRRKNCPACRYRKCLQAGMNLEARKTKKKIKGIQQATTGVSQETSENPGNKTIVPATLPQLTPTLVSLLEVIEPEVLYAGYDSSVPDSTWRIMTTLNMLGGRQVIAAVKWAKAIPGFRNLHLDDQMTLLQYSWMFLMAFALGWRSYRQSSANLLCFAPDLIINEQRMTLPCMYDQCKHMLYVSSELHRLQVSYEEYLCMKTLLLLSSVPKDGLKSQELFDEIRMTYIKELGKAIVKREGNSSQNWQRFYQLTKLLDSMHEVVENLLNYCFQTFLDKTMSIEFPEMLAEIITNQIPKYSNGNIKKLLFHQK

EDNRA = EDNRA (Homo sapiens, UniProt P25101); test: Mini-profiling panel, GPCR; format: cell-based; conditions: GPCR Targets
EDNRA, sequence (P25101 21-427, species assumed): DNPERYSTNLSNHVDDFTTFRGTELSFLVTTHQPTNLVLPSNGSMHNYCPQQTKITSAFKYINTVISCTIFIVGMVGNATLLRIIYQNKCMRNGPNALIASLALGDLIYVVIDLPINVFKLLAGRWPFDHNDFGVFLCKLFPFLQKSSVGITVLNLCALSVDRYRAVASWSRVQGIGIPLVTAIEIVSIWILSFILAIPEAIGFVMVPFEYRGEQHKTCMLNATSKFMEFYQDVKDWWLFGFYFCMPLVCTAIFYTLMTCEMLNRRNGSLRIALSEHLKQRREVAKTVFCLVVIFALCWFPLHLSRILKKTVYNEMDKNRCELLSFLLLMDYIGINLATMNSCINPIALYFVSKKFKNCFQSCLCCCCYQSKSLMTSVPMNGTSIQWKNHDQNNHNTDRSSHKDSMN

T1 sequence (P31153 whole entry): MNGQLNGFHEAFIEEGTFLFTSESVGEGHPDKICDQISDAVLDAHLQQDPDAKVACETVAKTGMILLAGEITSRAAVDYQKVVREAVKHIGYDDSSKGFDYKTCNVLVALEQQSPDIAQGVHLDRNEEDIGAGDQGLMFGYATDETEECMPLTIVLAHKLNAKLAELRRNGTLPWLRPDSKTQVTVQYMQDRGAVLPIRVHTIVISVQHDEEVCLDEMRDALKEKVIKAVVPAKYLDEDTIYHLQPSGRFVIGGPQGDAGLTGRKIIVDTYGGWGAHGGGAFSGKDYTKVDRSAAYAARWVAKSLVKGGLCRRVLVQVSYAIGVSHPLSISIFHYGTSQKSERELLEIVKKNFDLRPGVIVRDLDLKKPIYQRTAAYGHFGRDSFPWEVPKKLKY

Compound Cn1cnc2c(=O)n(-c3cccnc3C3CC3)c3cc(Cl)ccc3c21 [SCR‐7952, 7‐chloro‐5‐(2‐cyclopropylpyridin‐3‐yl)‐1‐methyl‐1,5‐dihydro‐4H‐imidazo[4,5‐c]quinolin‐4‐one] has a Kd (MAT2A [1]; read-out: dissociation equilibrium constant KD) of 0.00056 µM, a kon (MAT2A [1]; single-cycle kinetic model, read-out: association rate constant ka) of 86700 M⁻¹ s⁻¹ and a koff (MAT2A [1]; single-cycle kinetic model, read-out: dissociation rate constant kd) of 4.83e-05 s⁻¹. The IC50 (INSR) was > 10 µM, the IC50 (hERG) was > 10 µM and the EC50 (CCKAR; read-out: CCKAR Agonism EC50) was > 10 µM. For the same compound, the IC50 (CCKAR; read-out: CCKAR Antagonism IC50) was > 10 µM, the “effect on mice plasma levels of bilirubin” value [2] was “no significant effect” and the EC50 (HRH2; read-out: HRH2 Agonism EC50) was > 10 µM. The IC50 (HRH2; read-out: HRH2 Antagonism IC50) was > 10 µM, the IC50 (ROCK1) was > 10 µM and the “fold more potent than AG-270 on MAT2A enzymatic activity” value (MAT2A [3]) was 3.7 fold. It also gave an IC50 (MAT2A [3]; biochemical assay, read-out: IC50, MAT2A enzyme) of 0.0187 µM, a Ki (MAT2A [3]; in the presence of substrate methionine, Michaelis–Menten approach) of 0.0145 µM and a α value (MAT2A [3]; noncompetitive inhibition for methionine) of 1.193. For the same compound, the EC50 (HRH1; read-out: HRH1 Agonism EC50) was > 10 µM, the IC50 (HRH1; read-out: HRH1 Antagonism IC50) was > 10 µM and the “interaction on cell growth in combination with JNJ-64619178” value (HCT116 MTAP−/− cells) was “synergistic interactions”. The “interaction on cell growth in combination with MRTX-1719” value (HCT116 MTAP−/− cells) was “synergistic interactions”, the “synergistic effect in combination with GSK3326595” value (HCT116 MTAP−/− cells) was “much weaker” and the “SDMA level (immunoblot)” value (SDMA) was “Significant dose‐dependent reduction”. For the same compound, the “interaction in combination with JNJ-64619178 on KP4” value [4] was “synergistic effect was also observed”, the EC50 (AVPR1A; read-out: AVPR1A Agonism EC50) was > 10 µM and the IC50 (AVPR1A; read-out: AVPR1A Antagonism IC50) was > 10 µM. The IC50 (VEGFR2) was > 10 µM, the AUC(0-t) ([5]; Nu/Nu, mouse, oral, plasma, HCT116 MTAP−/− xenograft mice, read-out: AUC0-24h total) was 15800 ng·h/mL and the AUC0-24h free drug ([5]; calculated) was 1442 ng·h/mL. For the same compound, the IC50 (PDE4D2) was > 10 µM, the IC50 (LCK) was > 10 µM and the EC50 (ADRB1; read-out: ADRB1 Agonism EC50) was > 10 µM. The IC50 (ADRB1; read-out: ADRB1 Antagonism IC50) was > 10 µM, the IC50 (DAT) was > 10 µM and the IC50 (NET) was > 10 µM. The IC50 (SERT) was > 10 µM, the EC50 (GR; read-out: GR Agonism EC50) was > 10 µM and the IC50 (GR; read-out: GR Antagonism IC50) was > 10 µM. For the same compound, the EC50 (EDNRA; read-out: EDNRA Agonism EC50) was > 10 µM and the IC50 (EDNRA; read-out: EDNRA Antagonism IC50) was > 10 µM.

Source: PMC11413503, “SCR‐7952, a highly selective MAT2A inhibitor, demonstrates synergistic antitumor activities in combination with the S‐adenosylmethionine‐competitive or the methylthioadenosine‐cooperative protein arginine methyltransferase 5 inhibitors in methylthioadenosine phosphorylase‐deleted tumors” (MedComm, 2024)
